Laboratory results: patent publication US12239645B2, “Targeted dosing for the treatment of complement mediated disorders” (Achillion Pharmaceuticals, Inc., priority 2018, dated 2025)
Like-named read-outs stand apart in the source and are kept apart here.

Legend:
[1] = Multiple ascending dose (MAD) study: multiple-dose pharmacokinetics; type: in vivo, human; details: for concentration at 324 h: Day 14, 12 hr post-dose (324 h); for concentration at 324 h / concentration at 120 h / concentration at 132 h / concentration at 144 h / concentration at 156 h / concentration at 168 h / concentration at 192 h / concentration at 288 h / concentration at 300 h / concentration at 312 h: read-out: Pre-dose (trough) plasma concentration, Mean; for concentration at 120 h: Day 6, 0 hr post-dose (120 h); for concentration at 132 h: Day 6, 12 hr post-dose (132 h); for concentration at 144 h: Day 7, 0 hr post-dose (144 h); for concentration at 156 h: Day 7, 12 hr post-dose (156 h); for concentration at 168 h: Day 8, 0 hr post-dose (168 h); for concentration at 192 h: Day 9, 0 hr post-dose (192 h); for concentration at 288 h: Day 13, 0 hr post-dose (288 h); for concentration at 300 h: Day 13, 12 hr post-dose (300 h); for concentration at 312 h: Day 14, 0 hr post-dose (312 h)
Protocol: A multiple ascending dose (MAD) study of Compound 1 with two additional single-dose cohorts was also completed. […] Secondary objectives included evaluation of the pharmacokinetic (PK) profile and the relationship between Compound 1 PK and pharmacodynamic (PD) characteristics, that is, the inhibition of complement alternative pathway (AP) activity (PK/PD). In the MAD study, multiple-dose pharmacokinetics and pharmacodynamics of Compound 1 were evaluated in four dose groups administered Compound 1 (40, 80, 120 and 200 mg BID) in the fasted state for 14-days (Table 3). Eight subjects received active drug in each group; eight subjects received placebo in the first dose group (40 mg) and two subjects received placebo in each of the other three dose groups. Two additional cohorts were administered Compound 1 at single doses of 240 mg (fasted subjects) and 120 mg (fed subjects) (Table 3). The two single-dose cohorts each comprised six subjects receiving active drug and two subjects receiving placebo. Plasma and serum samples for PK and PD assessment were collected on selected days prior to dosing (at local troughs), and on days 1, 7, and 14 at 0.5-hour to 2-hour intervals for more detailed assessment.

[2] = system: fD, C3, C4, classical pathway (CP) function; experiment: Other complement assays (fD, C3, C4 serum concentration, serum total CP function); type: in vivo, human
Protocol: […] were dosed and evaluated in 4 dose groups with ten subjects receiving placebo (Table 1). The first dose group had 6 active and 6 placebo subjects; subsequent groups had 6 active and 2 placebo subjects each. Each group was followed for 28 days after dosing. All subjects were monitored for safety through the last scheduled visit at Day 28. Blood and urine samples were collected at predefined time points from Days 1 to 4 to determine plasma and urine concentrations of Compound 1 and from Days 1 to 7 to determine complement related activities. Results of serum AP activity measured by AP Wieslab assay as well as plasma Bb, factor D level and several other PD biomarkers were determined.
Serum AP hemolysis activity was assessed in samples collected from all cohorts at predefined time points from Day 1 (pre-dose) through Day 21. Intense sampling was obtained on Day 1 (0 h to 12 h), Day 7 (0 h to 12 h), and Day 14 (0 h to 16 h); all other serum samples were collected at 0 h (morning PK troughs) on the indicated days. […] Serum complement AP activity measured ex vivo by the AP Wieslab assay, serum total complement classical pathway (CP) activity, plasma complement Bb concentrations, and serum FD, C3, and C4 concentrations were also measured at predefined time points.

[3] = human, plasma, oral, 120 mg, 120 mg BID
[4] = human, plasma, oral, 200 mg, 200 mg BID

concentration at 324 h ([1]; human, plasma, oral, 80 mg, 80 mg BID): 42.5 ng/mL
concentration at 12 hr ([1]; human, plasma, oral, 80 mg, 80 mg BID, all 12 hr (evening) troughs, read-out: Mean C(12), steady-state trough): 45.9 ng/mL
concentration at 12 h ([1]; human, plasma, oral, 120 mg BID, all 12 hr (evening) troughs, read-out: Mean C(12), steady-state trough): ~80 ng/mL
Tmax ([1]; human, plasma, oral, 120 mg, 120 mg BID × 14 Days, Day 1): 2 h
AUC(0-t) ([1]; human, plasma, oral, 120 mg, 120 mg BID × 14 Days, Day 1, read-out: AUC(0-12), Mean): 1200 ng·h/mL
Cmax ([1]; human, plasma, oral, 120 mg, 120 mg BID × 14 Days, Day 1, read-out: Cmax, Mean): 353 ng/mL
Tmax ([1]; human, plasma, oral, 120 mg, 120 mg BID × 14 Days, Day 7): 1.75 h
AUC(0-t) ([1]; human, plasma, oral, 120 mg, 120 mg BID × 14 Days, Day 7, read-out: AUC(0-12), Mean): 3880 ng·h/mL
AUC(0-t) ([1]; human, plasma, oral, 120 mg, 120 mg BID × 14 Days, Day 7, read-out: AUC(0-24), Mean): 7750 ng·h/mL
Cmax ([1]; human, plasma, oral, 120 mg, 120 mg BID × 14 Days, Day 7, read-out: Cmax, Mean): 885 ng/mL
Tmax ([1]; human, plasma, oral, 120 mg, 120 mg BID × 14 Days, Day 14): 2.5 h
AUC(0-t) ([1]; human, plasma, oral, 120 mg, 120 mg BID × 14 Days, Day 14, read-out: AUC(0-12), Mean): 3990 ng·h/mL
AUC(0-t) ([1]; human, plasma, oral, 120 mg, 120 mg BID × 14 Days, Day 14, read-out: AUC(0-24), Mean): 7990 ng·h/mL
Cmax ([1]; human, plasma, oral, 120 mg, 120 mg BID × 14 Days, Day 14, read-out: Cmax, Mean): 887 ng/mL
concentration at 120 h [1, 3]: 165 ng/mL
concentration at 132 h [1, 3]: 90.6 ng/mL
concentration at 144 h [1, 3]: 125 ng/mL
concentration at 156 h [1, 3]: 67.2 ng/mL
concentration at 168 h [1, 3]: 164 ng/mL
concentration at 192 h [1, 3]: 156 ng/mL
concentration at 288 h [1, 3]: 136 ng/mL
concentration at 300 h [1, 3]: 88 ng/mL
concentration at 312 h [1, 3]: 173 ng/mL
concentration at 324 h [1, 3]: 76.6 ng/mL
Cmax ([1]; human, plasma, oral, 120 mg, 120 mg BID, read-out: Cmax): < 1000 ng/mL
Tmax ([1]; human, plasma, oral, 200 mg, 200 mg BID × 14 Days, Day 1): 1.63 h
AUC(0-t) ([1]; human, plasma, oral, 200 mg, 200 mg BID × 14 Days, Day 1, read-out: AUC(0-12), Mean): 1820 ng·h/mL
Cmax ([1]; human, plasma, oral, 200 mg, 200 mg BID × 14 Days, Day 1, read-out: Cmax, Mean): 440 ng/mL
Tmax ([1]; human, plasma, oral, 200 mg, 200 mg BID × 14 Days, Day 7): 2.06 h
AUC(0-t) ([1]; human, plasma, oral, 200 mg, 200 mg BID × 14 Days, Day 7, read-out: AUC(0-12), Mean): 9350 ng·h/mL
AUC(0-t) ([1]; human, plasma, oral, 200 mg, 200 mg BID × 14 Days, Day 7, read-out: AUC(0-24), Mean): 18700 ng·h/mL
Cmax ([1]; human, plasma, oral, 200 mg, 200 mg BID × 14 Days, Day 7, read-out: Cmax, Mean): 1870 ng/mL
Tmax ([1]; human, plasma, oral, 200 mg, 200 mg BID × 14 Days, Day 14): 1.81 h
AUC(0-t) ([1]; human, plasma, oral, 200 mg, 200 mg BID × 14 Days, Day 14, read-out: AUC(0-12), Mean): 8240 ng·h/mL
AUC(0-t) ([1]; human, plasma, oral, 200 mg, 200 mg BID × 14 Days, Day 14, read-out: AUC(0-24), Mean): 16500 ng·h/mL
Cmax ([1]; human, plasma, oral, 200 mg, 200 mg BID × 14 Days, Day 14, read-out: Cmax, Mean): 1630 ng/mL
concentration at 120 h [1, 4]: 431 ng/mL
concentration at 132 h [1, 4]: 241 ng/mL
concentration at 144 h [1, 4]: 385 ng/mL
concentration at 156 h [1, 4]: 241 ng/mL
concentration at 168 h [1, 4]: 381 ng/mL
concentration at 192 h [1, 4]: 377 ng/mL
concentration at 288 h [1, 4]: 376 ng/mL
concentration at 300 h [1, 4]: 272 ng/mL
concentration at 312 h [1, 4]: 415 ng/mL
concentration at 324 h [1, 4]: 235 ng/mL
concentration at 12 hr ([1]; human, plasma, oral, 200 mg, 200 mg BID, all 12 hr (evening) troughs, read-out: Mean C(12), steady-state trough): 247 ng/mL
Cmax ([1]; human, plasma, oral, 200 mg, 200 mg BID, read-out: Cmax): < 2000 ng/mL
C0 at 0 h ([1]; human, plasma, oral, 40 mg BID, all 0 hr (morning) troughs, read-out: Mean C(0), steady-state trough): 23.4 ng/mL
C0 at 0 hr ([1]; human, plasma, oral, 80 mg BID, all 0 hr (morning) troughs, read-out: Mean C(0), steady-state trough): 83.7 ng/mL
C0 at 0 hr ([1]; human, plasma, oral, 120 mg BID, all 0 hr (morning) troughs, read-out: Mean C(0), steady-state trough): 153 ng/mL
C0 at 0 hr ([1]; human, plasma, oral, 200 mg BID, all 0 hr (morning) troughs, read-out: Mean C(0), steady-state trough): 392 ng/mL
diurnal metabolic pattern ([1]; humans, BID dosing, C(0) morning vs C(12) evening): exhibits a diurnal metabolic pattern
Compound: CC(=O)c1nn(CC(=O)N2[C@H](C(=O)Nc3nc(Br)ccc3C)C[C@@]3(C)C[C@@H]23)c2ccc(-c3cnc(C)nc3)cc12 [Compound 1, (1R,3S,5R)-2-(2-(3-acetyl-5-(2-methylpyrimidin-5-yl)-1H-indazol-1-yl)acetyl)-N-(6-bromo-3-methylpyridin-2-yl)-5-methyl-2-azabicyclo[3.1.0]hexane-3-carboxamide]
change in serum CP activity and serum factor D, C3, C4 concentrations ([2]; MAD study single-dose cohorts (240 mg fasted, 120 mg fed)): no significant changes
change in fD, C3, C4 serum concentration and serum total CP function ([2]; SAD, single dose up to 120 mg, vs baseline and placebo): no significant changes
